According to ChEMBL document CHEMBL1201862, “PubChem BioAssay data set” (2004):
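Each compound was tested at five concentrations against cells in 96-well plates for 48 hours. At the GI50, growth is halved.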 Calls of active or inactive are those of the source. No stated cut-off is given here; in the data, active = GI50 up to about 1.1 µM and inactive = higher.

Columns and labels:
Test in all cases: growth of human tumour cells (NCI), 48 h
[1] = system: NCI-H460
[2] = system: MOLT-4
[3] = system: SF-295
[4] = system: HOP-92
[5] = system: SR
[6] = system: UACC-62
[7] = system: SK-MEL-2
[8] = system: COLO 205
[9] = system: U-251
[10] = system: RPMI-8226
[11] = system: SF-539
[12] = system: MDA-N
[13] = system: CAKI-1
[14] = system: Hs-578T
[15] = system: DU-145
[16] = system: NCI-H522
[17] = system: TK-10
[18] = system: K562
[19] = system: SW-620
[20] = system: LOX IMVI

Measured: GI50

Cc1ccc(/C=N/n2c(-c3ccc(C)cc3)n[nH]c2=O)cc1
inactive: [1] 21.5 µM | [2] 92.7 µM | [3] 48.8 µM | [4] 55.8 µM | [5] 25.4 µM | [6] 78 µM | [7] > 100 µM | [8] > 100 µM | [9] 35.3 µM | [10] > 100 µM | [11] 50.4 µM | [12] 80.7 µM | [13] 35.9 µM | [14] > 100 µM | [15] 91.6 µM | [16] > 100 µM | [17] 60.8 µM | [18] 96.4 µM | [19] > 100 µM

CCCC(=O)Nc1cc([N+](=O)[O-])c([N+](=O)[O-])cc1OC
inactive: [1] 13.3 µM | [2] > 10 µM | [3] 10.1 µM | [5] 5.18 µM | [6] 18.2 µM | [7] 16.5 µM | [8] 15.5 µM | [9] 16.3 µM | [10] 19.8 µM | [11] 20 µM | [20] 2.79 µM | [12] 15.1 µM | [13] 16 µM | [14] 14.4 µM | [15] 17.8 µM | [16] 12.9 µM | [17] 17.2 µM | [18] 17.5 µM | [19] 22.4 µM

O=C(CC(C(=O)c1cccs1)c1ccsc1)c1cccs1 (configuration not stated)
inactive: [1] 43.9 µM | [2] 46.7 µM | [3] 42 µM | [4] 94.2 µM | [5] 36 µM | [6] 62.1 µM | [8] 75.2 µM | [9] > 100 µM | [11] > 100 µM | [12] 25.8 µM | [13] > 100 µM | [14] > 100 µM | [15] > 100 µM | [16] 54.2 µM | [17] > 100 µM | [18] 37.8 µM | [19] 81.7 µM

Cc1ccc(-c2cc(N)n(-c3nc4c(c(=O)n(C)c(=O)n4C)n3C)n2)cc1
inactive: [1] > 100 µM | [2] > 100 µM | [3] 62.7 µM | [4] > 100 µM | [5] > 100 µM | [6] > 100 µM | [7] > 100 µM | [8] > 100 µM | [9] > 100 µM | [10] > 100 µM | [11] 45.8 µM | [12] > 100 µM | [13] > 100 µM | [14] 60.1 µM | [15] > 100 µM | [16] 86.5 µM | [17] > 100 µM | [18] > 100 µM

CC1(C)C2CCC1(C)C(NC(=O)CCN1CCOCC1)C2 (configuration not stated)
inactive: [1] > 100 µM | [2] > 100 µM | [3] > 100 µM | [4] > 100 µM | [5] > 100 µM | [6] > 100 µM | [8] > 100 µM | [9] > 100 µM | [11] > 100 µM | [12] > 100 µM | [13] > 100 µM | [14] > 100 µM | [15] > 100 µM | [16] > 100 µM | [17] > 100 µM | [18] > 100 µM | [19] > 100 µM

CN/C(=N\n1cnnc1)OC
inactive: [1] > 100 µM | [2] > 100 µM | [3] > 100 µM | [4] > 100 µM | [5] > 100 µM | [6] > 100 µM | [7] > 100 µM | [8] > 100 µM | [9] > 100 µM | [10] > 100 µM | [12] > 100 µM | [13] > 100 µM | [14] > 100 µM | [15] > 100 µM | [16] > 100 µM | [18] > 100 µM | [19] > 100 µM
